In US12594278B2, “Method for treatment of muscular dystrophy” (CHILDREN'S NATIONAL MEDICAL CENTER, priority 2019, dated 2026):

Key:
FAP = details: stated without data; cited from earlier work
A2-B6A/J mice = assay: Notexin injury of A2-B6A/J TA muscle with or without recombinant AnxA2; format: in vivo, mouse; details: 10 μg AnxA2 at injury site, 28 d after injury, vs notexin alone
Procedure: To test if this was also true in vivo, the AnxA2-naïve A2-B6A/J mice were used for receiving notexin to injure their muscle with or without the addition of 10 μg purified AnxA2 at the site of injury. […] This provides direct evidence supporting that extracellular AnxA2 is not only necessary, but also sufficient for driving FAP-mediated in vivo adipogenic conversion of the regenerating dysferlinopathic muscles.
Microscopy and Image Analysis. Microscopy was performed using an Olympus BX61 VS120-S5 Virtual Slide Scanning System with UPlanSApo 40×/0.95 objective, Olympus XM10 monochrome camera or Allied vision Pike F-505C color camera, and Olympus VS-ASW FL 2.7 imaging software. […] Perilipin-1 quantification was performed by thresholding the image to exclude non-specific staining and then calculating the area of each lipid deposit encircled by perlipin-1 (excluding those in the epi- or perimysium) using MetaMorph software (Molecular Devices). The total area encircled by perilipin-1 was calculated for all lipid deposits across the muscle and expressed relative to the total cross-sectional area. PDGFRα and AnxA2 positive area was calculated using CellSens software (Olympus) by thresholding to remove non-specific staining and calculating the total positive area (again, excluding any epi- or perimysial staining) relative to the entire muscle cross-section. […]

B6A/J FAPs = assay: Spontaneous adipogenesis of purified B6A/J FAPs treated with recombinant AnxA2 (Oil Red O); format: cell-based, mouse; details: 100 nM AnxA2 from day 3; 24Mo B6A/J FAPs; vs AnxA2 untreated FAPs
Text: The contribution of AnxA2 to the adipogenic fate of the FAPs was next examined in dysferlin-deficient muscle. For this FAPs were isolated from 12Mo WT, B6A/J and A2-B6A/J muscle and their spontaneous adipogenesis in vitro was quantified. […] The spontaneous adipogenesis of B6A/J FAPs indicates these cells are committed to adipogenesis prior to extraction, which can be caused by the pro-adipogenic niche in dysferlinopathic muscle. The lack of spontaneous adipogenesis in A2-B6A/J FAPs can be caused by the lack of a pro-adipogenic niche or restricted adipogenic potential of the FAPs in the absence of AnxA2 (FIG. 8). As adipogenic replacement of muscle is enhanced with age, the niche (PDGFRα^−) and FAP (PDGFRα^+) cells from 24Mo B6A/J and A2-B6A/J muscles were isolated to allow for the niche cells to reach their maximal potential. These FAP and niche cells were then mixed in a 1:1 ratio (20,000 cells total; 10,000 FAPs) from the same or different genetic background and their spontaneous adipogenesis was quantified as the extent of oil red staining/20,000 FAPs. […] To directly test if it is the AnxA2 or another factor secreted by the niche cells that influences FAP adipogenesis, a purified population of B6A/J FAPs ([…]) were treated with 100 nM AnxA2 and their spontaneous adipogenesis was quantified as the extent of oil red staining/20,000 FAPs. […]

Molecule | FAP adipogenesis (FAP) | accumulation of PDGFRα FAPs in TA after notexin injury (A2-B6A/J mice) | perilipin-1 labeled adipogenic deposits in TA after notexin injury (A2-B6A/J mice) | increase in spontaneous adipogenic differentiation of dysferlinopathic FAPs (oil red staining/20,000 FAPs) (B6A/J FAPs) [fold]
CC(CN1c2ccccc2Sc2ccccc21)N(C)C (stereo not shown) [promethazine] | inhibits FAP adipogenesis |  |  | 
AnxA2: recombinant AnxA2 (RayBiotech, #230-30023), membrane repair protein Annexin A2 |  | increased accumulation | increased accumulation | > 2
